Experimental data published in PubChem BioAssay AID1996.
Converted amounts (≈) assume the structure as drawn.

conditions: buffer; pH 7.4; 200.0 µM

solubility kinetic [µg/mL] | SMILES
40.9 (≈ 125 µM) | O=C(COC(=O)c1c(F)cccc1Cl)NCC1CCCCC1
24 (≈ 73.1 µM) | Cc1ccc(NC(=O)C2CCCN2C(=O)c2cccs2)c(C)c1 (centres undefined)
> 54.1 | N#Cc1c(-c2ccccc2)cc(-c2ccccc2)nc1SCCC(=O)O
2.6 (≈ 7.55 µM) | COc1ccc(NC(=S)N(C)CC2COc3ccccc3O2)cc1 (centres undefined)
27.9 (≈ 94.1 µM) | c1ccc(CN2CCC3(CC2)Nc2ccccc2S3)cc1
24.9 | COc1ccc(CCNCCN2CCOCC2)cc1.Cl
> 45.5 | CN(CC(=O)NC(=O)NC1CCCCC1)Cc1ccccc1
> 35.8 | CN1CCN(C(=O)c2ccc(Cl)cc2)CC1
8.6 (≈ 38.2 µM) | O=c1oc2ccccc2n1Cc1ccccc1
55.8 (≈ 140 µM) | COC(=O)C(NC(=O)CN1C(=O)c2ccccc2C1=O)c1ccc(O)c(OC)c1 (centres undefined)
> 46.7 | O=C(NCC1CCCO1)c1ccc(COc2ccccc2)cc1 (centres undefined)
> 42.9 | CCc1ccc(Nc2ccc(C(=O)O)cc2[N+](=O)[O-])cc1
42.4 (≈ 136 µM) | COc1ccc(OCC(=O)NC2CCCc3ccccc32)cc1 (centres undefined)
0.8 (≈ 2.15 µM) | COc1cccc(N2CCN(C(=O)c3ccc(-c4ccccc4)cc3)CC2)c1
> 26.3 | CN(C)/C=C/C(=O)c1ccccc1
> 18 | N=C(N)c1ccccc1
> 48.2 | Cc1ccc2c(=O)cc(C(=O)NC3CCS(=O)(=O)C3)oc2c1 (centres undefined)
> 50.3 | CC(=O)N[C@@H](Cc1c[nH]c2ccccc12)C(=O)NCc1ccccc1
0.7 (≈ 2.75 µM) | Cc1ccc(CNC(=O)Nc2ccccc2)c(C)c1
> 50.2 | COC(=O)c1ccc(CN2CCN(CC(C)C)C(CCO)C2)cc1 (centres undefined)
10.6 (≈ 28.1 µM) | O=C(COC(=O)CCC(=O)c1ccc(F)cc1)NCc1ccc(Cl)cc1
46.3 (≈ 140 µM) | CN(Cc1ccccc1)C(=O)COC(=O)Cc1ccc(Cl)cc1
> 70.9 | CN(CC(=O)NCCc1ccc(S(N)(=O)=O)cc1)CC(=O)Nc1ccccc1C(F)(F)F
> 40.1 | O=C1CC(Cc2ccccc2)C(=O)N1c1ncccn1 (centres undefined)
20.2 (≈ 59.9 µM) | CC1CCCC(NC(=O)COC(=O)COc2cccc(F)c2)C1C (centres undefined)
> 50.2 | COc1ccc(N2CC(C(=O)NC3CCSC3=O)CC2=O)cc1 (centres undefined)
43.2 (≈ 146 µM) | CCC1CN(C(=O)NCc2ccccc2)c2ccccc2O1 (centres undefined)

Further lines, the molecule ahead of its results:

SMILES | solubility kinetic [µg/mL]
CNC(=S)N(CCCO)Cc1cc2cc3c(cc2[nH]c1=O)OCO3 | 8.2 (≈ 23.5 µM)
CCOc1ccc(N2C(=O)CSC2=S)cc1 | < 0.5
Br.COc1ccc(C2=CSC3=NCCN23)cc1 | > 47
Cc1cc(C)cc(NS(=O)(=O)c2csc(C(N)=O)c2)c1 | > 46.6
Cc1ccc2c(CN(C)Cc3cccc(F)c3)cc(=O)oc2c1 | 2 (≈ 6.42 µM)
CCCCN(C(=O)C1CC(=O)N(c2ccc3c(c2)OCCO3)C1)c1c(N)n(CCC)c(=O)[nH]c1=O (centres undefined) | > 72.8
COc1cccc(N/C(N)=N/c2nc(C)cc(=O)[nH]2)c1 | 40.6 (≈ 149 µM)
O=C(c1ccco1)N1CCN(c2ccc([N+](=O)[O-])cc2F)CC1 | 7 (≈ 21.9 µM)
CCN(CC)C(=O)c1cc(Cl)ccn1 | 26.8 (≈ 126 µM)
CCOC(=O)N1CCN(CC(=O)Nc2ccc(F)cc2)CC1 | > 46.4
Cc1ccc2c(c1)c1c3n2CCN(CC(N)=O)C3CCC1 (centres undefined) | 1.7 (≈ 6 µM)
Cc1ccc(Cl)cc1NS(=O)(=O)N1CCOCC1 | > 43.6
CC1CN(C/C(=N\O)C23CC4CC(CC(C4)C2)C3)CC(C)O1 (centres undefined) | > 46
CN1c2ccc(Cl)cc2C(=O)NC1C1CC=CCC1 (centres undefined) | 3.4 (≈ 12.3 µM)
CN1CCN(C(=O)COc2ccc3ccccc3c2)CC1 | > 42.7
CN1C(=O)N(C)c2cccc3cccc1c23 | 0.8 (≈ 3.77 µM)
CCCNC(=O)Nc1cccc(C(=O)OC)c1 | > 35.4
O=C1C2CCCCC2C(=O)N1c1nccs1 (centres undefined) | > 35.4
Cc1noc2ncnc(Oc3cc(Cl)ccc3Cl)c12 | < 0.2
O=C1C2CCCCN2C(=O)N1CCCN1CCN(c2ccc(F)cc2)CC1 (centres undefined) | 48.1 (≈ 128 µM)
OCCNC(=S)Nc1ccc2c(c1)OCCO2 | 37 (≈ 145 µM)
Cc1cc(C(=O)NC2CCC(C)CC2)c(C)o1 (centres undefined) | 12.6 (≈ 53.5 µM)
